Experimental data as given in PubChem BioAssay AID296 (DTP/NCI, 2004).
“And” between values parts separate entries of the source, which are not always exact repeats. Equal values may be shown once. Results filed as inconclusive are left out. *1 amine or outer side, *2 acyl side, *3 side chain or, on linkers, in order; H or OH if unused. Where a SMILES comes first, the peptide text is derived from it. [ ]: non-standard residue; d: D form. The star is where a group is joined. X2 = CCC(=O)CC1CC(C)CC(C(=O)[*:2])N1[*:1]; X1 = CCCCCCCCC(C)C(=O)*; Aib = CC(C)(N)C(=O)O; X3 = CC(CN(C)CCO)N*

System: MX-1 breast xenograft, nude mice, tumor weight T/C
Experiment: NCI In Vivo Anticancer Drug Screen. Data for tumor model Human Mammary Carcinoma MX-1 Xenograft (intrarenal inoculation) in NU/NU Swiss (nude) mice
Conditions: endpoint: mean tumor weight change, higher = larger tumour
Method in brief: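 Tumor-bearing mice were treated with test compound alongside a vehicle-treated control group. Survival or tumor size was measured, and activity is expressed as the treated-group value divided by the control-group value.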

[1] = dose: 150.0 mg/kg/injection, schedule: Q04DX003 (sc), vehicle: saline with Tween-80
[2] = dose: 300.0 mg/kg/injection, schedule: Q04DX003 (sc), vehicle: saline with Tween-80
[3] = dose: 600.0 mg/kg/injection, schedule: Q04DX003 (sc), vehicle: saline with Tween-80
[4] = dose: 50.0 mg/kg/injection, schedule: Q04DX003 (sc), vehicle: saline with Tween-80
[5] = dose: 100.0 mg/kg/injection, schedule: Q04DX003 (sc), vehicle: saline with Tween-80
[6] = dose: 75.0 mg/kg/injection, schedule: Q04DX003 (sc), vehicle: suspension in saline
[7] = dose: 300.0 mg/kg/injection, schedule: Q04DX003 (sc), vehicle: Klucel (hydroxypropylcellulose) (HPC)
[8] = dose: 600.0 mg/kg/injection, schedule: Q04DX003 (sc), vehicle: Klucel (hydroxypropylcellulose) (HPC)
[9] = dose: 1200.0 mg/kg/injection, schedule: Q04DX003 (sc), vehicle: Klucel (hydroxypropylcellulose) (HPC)
[10] = dose: 2400.0 mg/kg/injection, schedule: Q04DX003 (sc), vehicle: Klucel (hydroxypropylcellulose) (HPC)

SMILES: O=C1C=CN(C2OC(CO)C(O)C2O)C(=O)C1 (stereo not drawn)
- T/C (dose: 50.0 mg/kg/injection, schedule: Q01DX010 (sc), vehicle: saline): 92 % of control
- T/C (dose: 100.0 mg/kg/injection, schedule: Q01DX010 (sc), vehicle: saline): 41 % of control
- T/C (dose: 200.0 mg/kg/injection, schedule: Q01DX010 (sc), vehicle: saline): 27 % of control
- T/C (dose: 400.0 mg/kg/injection, schedule: Q01DX010 (sc), vehicle: saline): 75 % of control

SMILES: CC[n+]1c(-c2ccccc2)c2cc(N)ccc2c2ccc(N)cc21
- T/C (dose: 15.0 mg/kg/injection, schedule: Q04DX003 (sc), vehicle: saline): 119 % of control
- T/C (dose: 30.0 mg/kg/injection, schedule: Q04DX003 (sc), vehicle: saline): 110 % of control
- T/C (dose: 60.0 mg/kg/injection, schedule: Q04DX003 (sc), vehicle: saline): 83 % of control

SMILES: O=C1CN(Cc2ccc3c(c2)OCO3)NO1
- T/C [1]: 64 % of control
- T/C [2]: 42 % of control
- T/C [3]: 39 % of control

SMILES: Cc1c(N)nc(C(CC(N)=O)NCC(N)C(N)=O)nc1C(=O)NC(C(=O)NC(C)C(O)C(C)C(=O)NC(C(=O)NCCc1nc(-c2nc(C(=O)NCCCNCCCc3ccccn3)cs2)cs1)C(C)O)C(OC1OC(CO)C(O)C(O)C1OC1OC(CO)C(O)C(OC(N)=O)C1O)c1cnc[nH]1 (stereo not drawn)
- T/C (dose: 9.0 mg/kg/injection, schedule: Q04DX003 (sc), vehicle: water): 77 % of control
- T/C (dose: 18.0 mg/kg/injection, schedule: Q04DX003 (sc), vehicle: water): 66 % of control
- T/C (dose: 36.0 mg/kg/injection, schedule: Q04DX003 (sc), vehicle: water): 75 % of control
- T/C (dose: 72.0 mg/kg/injection, schedule: Q04DX003 (sc), vehicle: water): 44 % of control

SMILES: CCCCCCCCC(C)C(=O)N1CCCC1C(=O)N1C(CC(=O)CC)CC(C)CC1C(=O)NC(C)C(=O)NC(C)(C)C(=O)NC(C)(C)C(=O)NC(C(=O)NC(C)C(=O)NC(C)(C)C(=O)NC(C)(C)C(=O)NC(C)CN(C)CCO)C(C)CC (stereo not drawn) (X1-P[X2]A[Aib][Aib]IA[Aib][Aib]-X3; configuration not given here)
- T/C (dose: 1.25 mg/kg/injection, schedule: Q04DX003 (sc), vehicle: Klucel (hydroxypropylcellulose) (HPC)): 105 % of control
- T/C (dose: 2.5 mg/kg/injection, schedule: Q04DX003 (sc), vehicle: Klucel (hydroxypropylcellulose) (HPC)): 113 % of control

SMILES: NCC1CCC(C(=O)O)CC1 (stereo not drawn)
- T/C [3]: 115 % of control
- T/C (dose: 1200.0 mg/kg/injection, schedule: Q04DX003 (sc), vehicle: saline with Tween-80): 76 % of control
- T/C (dose: 2400.0 mg/kg/injection, schedule: Q04DX003 (sc), vehicle: saline with Tween-80): 155 % of control

SMILES: CN=C(N)N/N=C(\c1ccccc1)c1ccc(Br)cc1
- T/C (dose: 25.0 mg/kg/injection, schedule: Q04DX003 (sc), vehicle: saline with Tween-80): 101 % of control
- T/C [4]: 163 % of control
- T/C [5]: 78 % of control

SMILES: CC1=C(C)C(=O)O[C@@H]([C@](C)(O)[C@]2(O)CC[C@@]3(O)[C@@H]4C[C@H]5O[C@]56CC=CC(=O)[C@]6(C)[C@H]4CC[C@]23C)C1
- T/C [6]: 112 % of control
- T/C (dose: 150.0 mg/kg/injection, schedule: Q04DX003 (sc), vehicle: suspension in saline): 83 % of control
- T/C (dose: 300.0 mg/kg/injection, schedule: Q04DX003 (sc), vehicle: suspension in saline): 83 % of control
- T/C (dose: 600.0 mg/kg/injection, schedule: Q04DX003 (sc), vehicle: suspension in saline): 95 % of control

SMILES: CCCCCCCCCCCCSC1=C(Cl)C(=O)C(OC)=C(OC)C1=O
- T/C [2]: 47 % of control
- T/C [3]: 77 % of control

SMILES: CC(C)(C)N1CC1CNC(=O)C(=O)NCC1CN1C(C)(C)C (stereo not drawn)
- T/C [4]: -41 % of control and -29 % of control

SMILES: [CH3][Sn]([CH3])([Cl])[S]CCN
- T/C (dose: 18.75 mg/kg/injection, schedule: Q04DX003 (sc), vehicle: suspension in saline): 77 % of control
- T/C [6]: 157 % of control

SMILES: NC(=O)c1[nH]nc(C2OC(CO)C(O)C2O)c1O (stereo not drawn)
- T/C (dose: 2.5 mg/kg/injection, schedule: Q04DX003 (sc), vehicle: saline): 111 % of control
- T/C (dose: 20.0 mg/kg/injection, schedule: Q04DX003 (sc), vehicle: saline): 68 % of control

SMILES: Cc1ccc2nc(-c3ccc4nc(-c5ccc(N=Nc6ccc(-c7nc8ccc(-c9nc%10ccc(C)c(S(=O)(=O)O)c%10s9)cc8s7)cc6)cc5)sc4c3)sc2c1S(=O)(=O)O
- T/C (dose: 200.0 mg/kg/injection, schedule: Q04DX003 (sc), vehicle: suspension in saline): 90 % of control
- T/C (dose: 400.0 mg/kg/injection, schedule: Q04DX003 (sc), vehicle: suspension in saline): 90 % of control

SMILES: ClC1=C(Cl)C(Cl)=C(Cl)C1=Cc1ccccc1
- T/C [5]: 98 % of control
- T/C (dose: 200.0 mg/kg/injection, schedule: Q04DX003 (sc), vehicle: saline with Tween-80): 119 % of control
- T/C (dose: 400.0 mg/kg/injection, schedule: Q04DX003 (sc), vehicle: saline with Tween-80): 98 % of control
- T/C (dose: 800.0 mg/kg/injection, schedule: Q04DX003 (sc), vehicle: saline with Tween-80): 110 % of control

SMILES: OCC1OC(n2cnc3c(NO)ncnc32)C(O)C1O (stereo not drawn)
- T/C [7]: 65 % of control
- T/C [8]: 70 % of control
- T/C [9]: 100 % of control
- T/C [10]: 82 % of control

SMILES: CC(=O)OC1C(O)C(C)OC(OC2C(OC(=O)C3CCC4C(C3)OC3(CC(OC(=O)/C=C/c5ccccc5)C(C)CO3)C43CO3)OC(C)C(O)C2OC(C)=O)C1O (stereo not drawn)
- T/C (dose: 15.0 mg/kg/injection, schedule: Q04DX003 (sc), vehicle: distilled water + Tween-80): 124 % of control
- T/C (dose: 30.0 mg/kg/injection, schedule: Q04DX003 (sc), vehicle: distilled water + Tween-80): 117 % of control
- T/C (dose: 60.0 mg/kg/injection, schedule: Q04DX003 (sc), vehicle: distilled water + Tween-80): 73 % of control
- T/C (dose: 120.0 mg/kg/injection, schedule: Q04DX003 (sc), vehicle: distilled water + Tween-80): 61 % of control

SMILES: CCCC(=O)O.CCCC(=O)O.CCCC(=O)O.CCCC(=O)O.[Rh].[Rh]
- T/C (dose: 2.0 mg/kg/injection, schedule: Q04DX003 (sc), vehicle: suspension in saline): 99 % of control
- T/C (dose: 4.0 mg/kg/injection, schedule: Q04DX003 (sc), vehicle: suspension in saline): 115 % of control
- T/C (dose: 8.0 mg/kg/injection, schedule: Q04DX003 (sc), vehicle: suspension in saline): 80 % of control

SMILES: COC1=C(NC(C)=O)C(=O)c2nc(-c3nc(C(=O)O)c(C)c(-c4ccc(OC)c(OC)c4O)c3N)ccc2C1=O
- T/C (dose: 50.0 mg/kg/injection, schedule: Q04DX003 (sc), vehicle: Klucel (hydroxypropylcellulose) (HPC)): 118 % of control
- T/C (dose: 100.0 mg/kg/injection, schedule: Q04DX003 (sc), vehicle: Klucel (hydroxypropylcellulose) (HPC)): 47 % of control

SMILES: COc1cccc2c1C(=O)c1c(O)c3c(c(O)c1C2=O)C[C@@](O)(C(=O)CO)C[C@@H]3OC1CC(N)C(O)C(C)O1 (stereo partly drawn)
- T/C (dose: 0.25 mg/kg/injection, schedule: Q01DX010 (ip), vehicle: water): 46 % of control
- T/C (dose: 0.5 mg/kg/injection, schedule: Q01DX010 (ip), vehicle: water): 37 % of control
- T/C (dose: 0.75 mg/kg/injection, schedule: Q01DX010 (sc), vehicle: saline): 159 % of control
- T/C (dose: 1.0 mg/kg/injection, schedule: Q01DX010 (ip), vehicle: water): 10 % of control
- T/C (dose: 1.5 mg/kg/injection, schedule: Q01DX010 (sc), vehicle: saline): 84 % of control
- T/C (dose: 3.0 mg/kg/injection, schedule: Q01DX010 (sc), vehicle: saline): 94 % of control
- T/C (dose: 4.0 mg/kg/injection, schedule: Q04DX003 (sc), vehicle: water): 61 % of control
- T/C (dose: 6.0 mg/kg/injection, schedule: Q01DX010 (sc), vehicle: saline): 52 % of control
- T/C (dose: 6.0 mg/kg/injection, schedule: Q01DX010 (sc), vehicle: water): 69 % of control
- T/C (dose: 8.0 mg/kg/injection, schedule: Q04DX003 (sc), vehicle: water): 61 % of control

SMILES: Cc1cc(C)c(-c2cc(O)c(C)cc2O)c(C)c1
- T/C [7]: 588 % of control
- T/C [8]: 557 % of control
- T/C [9]: 388 % of control
- T/C [10]: 420 % of control

SMILES: FC(F)(F)c1nc2nc(Cl)c(Cl)nc2[nH]1
- T/C (dose: 75.0 mg/kg/injection, schedule: Q04DX003 (sc), vehicle: saline with Tween-80): 92 % of control
- T/C [1]: 97 % of control
- T/C [2]: 90 % of control

SMILES: CCCCCCCCCCCCCCCCS(=O)CC(O)COC(=O)c1ccc(C(=O)OCC(O)CS(=O)CCCCCCCCCCCCCCCC)cc1 (stereo not drawn)
- T/C (dose: 50.0 mg/kg/injection, schedule: Q01DX010 (sc), vehicle: saline + Tween-80 + alcohol): 58 % of control
- T/C (dose: 100.0 mg/kg/injection, schedule: Q01DX010 (sc), vehicle: saline + Tween-80 + alcohol): 115 % of control
- T/C (dose: 200.0 mg/kg/injection, schedule: Q01DX010 (sc), vehicle: saline + Tween-80 + alcohol): 100 % of control
- T/C (dose: 400.0 mg/kg/injection, schedule: Q01DX010 (sc), vehicle: saline + Tween-80 + alcohol): 82 % of control
